Source: PMC6459903, “The enzymes OSC1 and CYP716A263 produce a high variety of triterpenoids in the latex of Taraxacum koksaghyz” (Scientific Reports, 2019)

How the values were obtained:
Type in all cases: cell-based
CYP716A263 = molecular target: T1, CYP716A263 (Taraxacum kok-saghyz, UniProt A0A3S5GS06); test: co-expression in N. benthamiana leaves, GC-MS; conditions: C-3 oxidation to lupenone; lupeol formed in situ by co-expressed TkLUP with Tkhmgrc1
T1 construct: full-length 473 residues (1,422 bp), from latex cDNA; transient expression in Nicotiana benthamiana leaves with host reductase
T1 sequence (A0A3S5GS06 1-473): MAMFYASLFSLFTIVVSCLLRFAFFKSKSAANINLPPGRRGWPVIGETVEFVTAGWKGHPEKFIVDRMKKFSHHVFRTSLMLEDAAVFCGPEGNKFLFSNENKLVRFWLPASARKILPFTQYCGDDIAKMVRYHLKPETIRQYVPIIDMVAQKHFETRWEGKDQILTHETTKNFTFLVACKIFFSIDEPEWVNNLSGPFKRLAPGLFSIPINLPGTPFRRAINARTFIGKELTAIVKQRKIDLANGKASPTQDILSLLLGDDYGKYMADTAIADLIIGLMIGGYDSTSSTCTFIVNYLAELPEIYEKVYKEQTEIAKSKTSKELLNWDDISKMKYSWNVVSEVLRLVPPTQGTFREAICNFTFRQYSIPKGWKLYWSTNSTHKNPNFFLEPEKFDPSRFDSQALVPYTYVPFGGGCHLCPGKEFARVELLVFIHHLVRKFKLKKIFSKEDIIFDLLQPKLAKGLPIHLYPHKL

TkLUP = molecular target: T2, TkLUP (Taraxacum kok-saghyz, UniProt A0A3B1EU92); test: transient expression in N. benthamiana leaves, GC-MS; conditions: with Tkhmgrc1; endogenous 2,3-oxidosqualene; predominant product
T2 construct: gene Lup; full-length cDNA; transient expression in Nicotiana benthamiana leaves
T2 sequence (A0A3B1EU92 1-758): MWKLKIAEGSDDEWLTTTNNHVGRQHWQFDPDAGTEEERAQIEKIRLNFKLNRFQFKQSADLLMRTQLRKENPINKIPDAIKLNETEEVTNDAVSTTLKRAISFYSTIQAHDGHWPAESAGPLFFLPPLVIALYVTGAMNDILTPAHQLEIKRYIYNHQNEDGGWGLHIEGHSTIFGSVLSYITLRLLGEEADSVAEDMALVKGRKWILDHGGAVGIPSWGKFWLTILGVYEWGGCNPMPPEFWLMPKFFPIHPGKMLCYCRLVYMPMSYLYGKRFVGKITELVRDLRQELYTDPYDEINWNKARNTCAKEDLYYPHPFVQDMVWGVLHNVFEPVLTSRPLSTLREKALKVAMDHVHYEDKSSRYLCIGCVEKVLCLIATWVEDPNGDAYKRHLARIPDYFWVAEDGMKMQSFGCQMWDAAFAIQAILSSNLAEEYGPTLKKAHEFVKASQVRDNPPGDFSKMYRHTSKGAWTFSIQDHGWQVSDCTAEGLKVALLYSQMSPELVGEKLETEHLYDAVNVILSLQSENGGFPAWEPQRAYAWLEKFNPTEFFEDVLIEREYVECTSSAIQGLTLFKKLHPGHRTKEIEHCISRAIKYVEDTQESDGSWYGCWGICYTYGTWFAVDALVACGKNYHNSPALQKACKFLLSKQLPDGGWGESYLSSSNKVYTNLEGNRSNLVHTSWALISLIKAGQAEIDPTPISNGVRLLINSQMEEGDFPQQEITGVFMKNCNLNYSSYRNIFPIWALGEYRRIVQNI

TkOSC6 = molecular target: T3, TkOSC6 (Taraxacum kok-saghyz, UniProt A0A3S7RZ84); test: expression in S. cerevisiae, GC-MS; conditions: endogenous 2,3-oxidosqualene as substrate; erg7 repressed by CuSO4; main product
T3 construct: gene OSC6; unmodified full-length protein; expressed in S. cerevisiae CEN.PK2-1C and N. benthamiana
T3 sequence (A0A3S7RZ84 1-758): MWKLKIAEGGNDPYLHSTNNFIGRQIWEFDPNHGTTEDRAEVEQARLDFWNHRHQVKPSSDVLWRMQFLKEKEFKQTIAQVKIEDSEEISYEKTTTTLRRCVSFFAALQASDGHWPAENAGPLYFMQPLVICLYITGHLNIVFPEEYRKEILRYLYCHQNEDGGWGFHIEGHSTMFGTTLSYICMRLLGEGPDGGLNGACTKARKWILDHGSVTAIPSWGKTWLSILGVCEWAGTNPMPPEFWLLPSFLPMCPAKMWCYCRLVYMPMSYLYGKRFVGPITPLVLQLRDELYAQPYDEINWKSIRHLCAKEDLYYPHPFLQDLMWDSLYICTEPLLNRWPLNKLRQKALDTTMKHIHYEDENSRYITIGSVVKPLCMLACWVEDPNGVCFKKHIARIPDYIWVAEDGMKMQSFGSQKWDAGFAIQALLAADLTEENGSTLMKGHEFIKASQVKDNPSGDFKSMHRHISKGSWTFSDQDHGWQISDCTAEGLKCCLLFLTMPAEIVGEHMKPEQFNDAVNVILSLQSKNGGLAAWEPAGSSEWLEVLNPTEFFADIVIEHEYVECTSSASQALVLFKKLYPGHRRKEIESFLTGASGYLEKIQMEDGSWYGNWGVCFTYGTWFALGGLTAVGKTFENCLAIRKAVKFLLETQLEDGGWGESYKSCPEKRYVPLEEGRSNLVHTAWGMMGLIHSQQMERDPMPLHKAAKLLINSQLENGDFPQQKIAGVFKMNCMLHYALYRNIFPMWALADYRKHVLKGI

CYP716A263/AtR2 = molecular target: T4, CYP716A263/AtR2 (Taraxacum kok-saghyz, UniProt A0A3S5GS06); test: co-expression in S. cerevisiae, GC-MS; conditions: C-3 oxidation to taraxasterone; taraxasterol formed in situ by co-expressed TkLUPN-TkOSC1C; AtR2 reductase
T4 construct: full-length P450, 473 residues, co-expressed with Arabidopsis thaliana reductase AtR2 in S. cerevisiae CEN.PK2-1C; with NADPH--cytochrome P450 reductase 2 (Arabidopsis thaliana)
T4 sequence (A0A3S5GS06 1-473): as the sequence (A0A3S5GS06 1-473) above
T4 sequence (Q9SUM3 whole entry partner): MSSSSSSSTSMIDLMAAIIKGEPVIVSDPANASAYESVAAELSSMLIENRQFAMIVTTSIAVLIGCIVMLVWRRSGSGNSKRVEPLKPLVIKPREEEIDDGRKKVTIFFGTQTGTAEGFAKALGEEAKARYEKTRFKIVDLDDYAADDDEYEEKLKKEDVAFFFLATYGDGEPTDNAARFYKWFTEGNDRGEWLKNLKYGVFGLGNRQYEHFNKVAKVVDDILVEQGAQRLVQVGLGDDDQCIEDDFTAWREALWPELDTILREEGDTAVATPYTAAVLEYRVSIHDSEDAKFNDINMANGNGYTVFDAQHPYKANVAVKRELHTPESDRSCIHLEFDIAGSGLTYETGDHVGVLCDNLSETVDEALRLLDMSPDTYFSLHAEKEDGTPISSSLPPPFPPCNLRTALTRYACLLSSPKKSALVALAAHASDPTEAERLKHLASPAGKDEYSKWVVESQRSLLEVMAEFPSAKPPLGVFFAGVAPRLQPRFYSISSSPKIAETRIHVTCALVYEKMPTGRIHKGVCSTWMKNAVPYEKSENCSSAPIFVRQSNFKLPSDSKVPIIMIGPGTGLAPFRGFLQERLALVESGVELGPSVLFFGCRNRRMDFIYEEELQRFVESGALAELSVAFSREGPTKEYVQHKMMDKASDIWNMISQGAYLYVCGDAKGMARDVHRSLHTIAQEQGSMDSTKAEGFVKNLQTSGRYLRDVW

C=C(C)[C@@H]1CC[C@]2(C)CC[C@]3(C)[C@H](CC[C@@H]4[C@@]5(C)CC[C@H](O)C(C)(C)[C@@H]5CC[C@]43C)[C@@H]12 [lupeol]
co-expression in N. benthamiana leaves, GC-MS (CYP716A263): CYP716A263 is capable of converting lupeol into lupenone and exhibits a C-3 oxidation activity | transient expression in N. benthamiana leaves, GC-MS (TkLUP): TkLUP in combination with Tkhmgrc1 led to the predominant production of lupeol

CC1(C)CC[C@]2(C)CC[C@]3(C)C(=CC[C@@H]4[C@@]5(C)CC[C@H](O)C(C)(C)[C@@H]5CC[C@]43C)[C@@H]2C1 [β-amyrin]
expression in S. cerevisiae, GC-MS (TkOSC6): TkOSC6 expression in yeast led to the identification of β-amyrin as main product

C=C1CC[C@]2(C)CC[C@]3(C)[C@H](CC[C@@H]4[C@@]5(C)CC[C@H](O)C(C)(C)[C@@H]5CC[C@]43C)[C@H]2[C@@H]1C [taraxasterol]
co-expression in S. cerevisiae, GC-MS (CYP716A263/AtR2): taraxasterol, as the most abundant product, was converted to taraxasterone
